This is an account of results in ChEMBL document CHEMBL1136462, “The effect of remote chirality on the antibacterial activity of indolinyl, tetrahydroquinolyl and dihydrobenzoxazinyl oxazolidinones” (Bioorg Med Chem Lett, 2003).

For orientation: bioavailability means the share of a dose that reaches the circulation, judged against a reference dose that is usually intravenous. Low values mean poor availability, high ones good availability. Usually Cmax stands for the highest concentration seen after dosing. By Vss is commonly meant a proportionality between amount in the body and measured concentration, not a real space. As usually defined, the Tmax is the time from dosing to the highest level. One may read the half-life as the time in which the quantity being followed falls by half. The term clearance denotes a measure of how efficiently the substance is removed, as volume per time. High values mean a high capacity for elimination, low ones a low capacity for elimination. The ED50 is the dose at which the effect has come halfway, by size or by number of responders.

Data set [1] can be described thus: Oral bioavailability of compound (19.76 mg/kg) after po administration was determined in Sprague-Dawley rat. It is filed as ADME, organism-based. Conditions: in vivo.
For data set [2], the system named is Rattus norvegicus. The experiment in a line: Clearance (Cl) of compound (9.84 mg/kg) after iv administration was determined in Sprague-Dawley rat. It is filed as ADME, organism-based. Conditions: in vivo.
A short description of data set [3]: Maximum plasma concentration (Cmax) of compound (19.76 mg/kg) after po administration was determined Sprague-Dawley rat. It is filed as ADME, organism-based. The arrangement: dose 19.76 mg/kg, route oral.
Data set [4] in a line: Maximum plasma concentration (Cmax) of compound (9.84 mg/kg) after iv administration was determined Sprague-Dawley rat. It is filed as ADME, organism-based. More on the design: dose 9.84 mg/kg, route intravenous.
Data set [5] concerns Rattus norvegicus. The experiment in a line: Steady state volume distribution (Vss) of compound(9.84 mg/kg) after iv administration was determined in Sprague-Dawley rat. The note with it: in vivo. The format is ADME, organism-based.
A short description of data set [6]: Tmax of compound (19.76 mg/kg) after po administration was determined in Sprague-Dawley rat. The format is ADME, organism-based. Conditions: in vivo.
Data set [7] relates to Rattus norvegicus. Description: Half life of compound (9.84 mg/kg) after iv administration was determined in Sprague-Dawley rat. It is filed as ADME, organism-based. The note with it: in vivo.
A short description of data set [8]: Half life of compound (9.84 mg/kg) after po administration was determined in Sprague-Dawley rat. The format is ADME, organism-based. The note with it: in vivo.
The subject of data set [9] is Enterococcus faecalis. Description: In vitro antibacterial activity against vancomycin susceptible Enterococcus faecalis UC19217 (VSEF). The format is functional.
Data set [10] deals with Haemophilus influenzae. Description: In vitro antibacterial activity against ampicillin resistant Haemophilus influenzae 30063 (AMPR b-lactamase+). The format is functional.
Data set [11] has as its system Moraxella catarrhalis. Description: In vitro antibacterial activity against Moraxella catarrhalis 30607 (b-lactamase+). It is filed as functional.
The test system of data set [12] is Staphylococcus epidermidis. The experiment in a line: In vitro antibacterial activity against methicillin resistant Staphylococcus epidermis US 12084 (MRSE). The format is functional.
Data set [13] deals with Staphylococcus aureus. Description: In vitro antibacterial activity against methicillin susceptible Staphylococcus aureus UC19213 (MSSA); (SA1). It is filed as functional.
Data set [14] concerns Staphylococcus aureus. The experiment in a line: In vitro antibacterial activity against Staphylococcus aureus UC12673 (SA2). The format is functional.
In data set [15] the test system is Streptococcus pneumoniae. The experiment in a line: In vitro antibacterial activity against penicillin susceptible Streptococcus pneumoniae UC19912 (PSSP). The format is functional.
The nature of data set [16]: Oral bioavailability of compound (20.73 mg/kg) after po administration was determined in Sprague-Dawley rat. The note with it: in vivo. It is filed as ADME, organism-based.
A short description of data set [17]: Clearance (Cl) of compound (9.92 mg/kg) after iv administration was determined in Sprague-Dawley rat. The format is ADME, organism-based. Conditions: in vivo.
A short description of data set [18]: Maximum plasma concentration (Cmax) of compound (20.73 mg/kg) after po administration was determined Sprague-Dawley rat. It is filed as ADME, organism-based. More on the design: dose 20.73 mg/kg, route oral.
A short description of data set [19]: Maximum plasma concentration (Cmax) of compound (9.92 mg/kg) after iv administration was determined Sprague-Dawley rat. The format is ADME, organism-based. More on the design: dose 9.92 mg/kg, route intravenous.
A short description of data set [20]: Steady state volume distribution (Vss) of compound after iv administration was determined in Sprague-Dawley rat. It is filed as ADME, organism-based. Conditions: in vivo, read-out: Vss.
Data set [21] in a line: Half life of compound (20.73 mg/kg) after po administration was determined in Sprague-Dawley rat. The format is ADME, organism-based. Conditions: in vivo.
Data set [22] is described as follows: Tmax of compound (20.73 mg/kg) after po administration was determined in Sprague-Dawley rat. It is filed as ADME, organism-based. The note with it: in vivo.
Data set [23] is described as follows: Half life of compound (9.92 mg/kg) after iv administration was determined in Sprague-Dawley rat. It is filed as ADME, organism-based. The note with it: in vivo.
The test system of data set [24] is Mus musculus. Description: In vivo efficacy of compound to protect the Staphylococcus aureus UC9213 infected mouse from death after po administration. It is filed as functional.
The nature of data set [25]: Clearance (Cl) of compound (10 mg/kg) after iv administration was determined in Sprague-Dawley rat. It is filed as ADME, organism-based. The note with it: in vivo.
Data set [26] is described as follows: Maximum plasma concentration (Cmax) of compound (25 mg/kg) after po administration was determined Sprague-Dawley rat. The arrangement: dose 25 mg/kg, route oral. The format is ADME, organism-based.
Data set [27] in a line: Tmax of compound (25 mg/kg) after po administration was determined in Sprague-Dawley rat. It is filed as ADME, organism-based. The note with it: in vivo.
For data set [28], the system named is Mus musculus. The experiment in a line: In vivo efficacy of compound to protect the Staphylococcus aureus UC9213 infected mouse from death after sc administration. It is filed as functional.

Converted amounts (≈) assume the structure as drawn. A value given as a limit tells only on which side of the number the result lay.

In data set [1], `CC(=O)NC[C@H]1CN(c2ccc3c(c2)C[C@@H](C)N3C=O)C(=O)O1` yielded a bioavailability of 56%. Further, the CL in [2] turned out to be 1.84 mL/min/kg. Also, the Cmax in data set [3] is 7200 ng/mL; in [4], 16100 ng/mL. In data set [5], this compound returned a Vss of 1.27 L/kg. Further, the Tmax in [6] turned out to be 30 min. Further, the T1/2 in [7] turned out to be 102 min. In data set [8], this compound showed a half-life of 48 min. The MIC was 1 µg/mL (≈ 3.15 µM) in [9]; 8 µg/mL (≈ 25.2 µM) in data set [10]; 4 µg/mL (≈ 12.6 µM) in data set [11]; below 0.5 µg/mL in data set [12]; 1 µg/mL (≈ 3.15 µM) in data set [13]; 1 µg/mL (≈ 3.15 µM) in data set [14]. This compound gave an MIC in data set [15] below 0.5 µg/mL.

For `CC(=O)NC[C@H]1CN(c2ccc3c(c2)OC[C@@H](C)N3C=O)C(=O)O1`, the MIC in [9] was 4 µg/mL (≈ 12 µM); in data set [10], 64 µg/mL (≈ 192 µM); in data set [11] it was 8 µg/mL (≈ 24 µM); in data set [12], below 1 µg/mL; in [13] it was 4 µg/mL (≈ 12 µM); in data set [14] it was 2 µg/mL (≈ 6 µM). For the same compound, the MIC in data set [15] is below 1 µg/mL.

For the compound `C/C(S)=N/C[C@H]1CN(c2ccc3c(c2)C[C@H](C)N3C=O)C(=O)O1`, the MIC is 2 µg/mL (≈ 6 µM) in data set [9]; 32 µg/mL (≈ 96 µM) in data set [10]; 16 µg/mL (≈ 48 µM) in data set [11]; 1 µg/mL (≈ 3 µM) in [12]; 2 µg/mL (≈ 6 µM) in [13]; 2 µg/mL (≈ 6 µM) in data set [14]. Besides, the MIC in data set [15] is below 0.5 µg/mL.

On to `CC(=O)NC[C@H]1CN(c2ccc3c(c2)C[C@@H](C)N3C(=O)CO)C(=O)O1`, for which the bioavailability in data set [16] came to 55.4%. Further, in data set [17], the clearance was found to be 24 mL/min/kg. The Cmax came to 3800 ng/mL in data set [18] and 15100 ng/mL in data set [19]. Moreover, the Vd in data set [20] turned out to be 1.28 L/kg. Moreover, the half-life in data set [21] is 168 min; in [23], 108 min. For the same compound, the Tmax in data set [22] was determined as 30 min. The MIC in [9] came out at 2 µg/mL (≈ 5.76 µM); in data set [10], 8 µg/mL (≈ 23 µM); in [11] it was 8 µg/mL (≈ 23 µM); in [12] it was 0.5 µg/mL (≈ 1.44 µM); in data set [13], 4 µg/mL (≈ 11.5 µM); in [14], 2 µg/mL (≈ 5.76 µM). In [15], this compound displayed an MIC of 0.5 µg/mL (≈ 1.44 µM). In data set [24], this compound gave an ED50 of 1.8 mg/kg.

Regarding `CC(=O)NC[C@H]1CN(c2ccc3c(c2)CC[C@H](C)N3C=O)C(=O)O1`, the MIC in [9] was 8 µg/mL (≈ 24.1 µM); in [10], 64 µg/mL (≈ 193 µM); in data set [11] it was 16 µg/mL (≈ 48.3 µM); in data set [12] it was below 2 µg/mL; in data set [13], 8 µg/mL (≈ 24.1 µM); in [14], 4 µg/mL (≈ 12.1 µM). In addition, the MIC in data set [15] is below 2 µg/mL.

In the case of `C/C(S)=N/C[C@H]1CN(c2ccc3c(c2)C[C@@H](C)N3C(=O)CO)C(=O)O1`, the MIC in data set [9] was below 0.5 µg/mL; in data set [10], 8 µg/mL (≈ 22 µM); in [11] it was 2 µg/mL (≈ 5.5 µM); in data set [12], below 0.5 µg/mL; in [13], below 0.5 µg/mL; in [14], below 0.5 µg/mL. In data set [15], this compound showed an MIC below 0.5 µg/mL.

As to `C/C(S)=N/C[C@H]1CN(c2ccc3c(c2)CC[C@H](C)N3C=O)C(=O)O1`, the MIC in [9] is 2 µg/mL (≈ 5.76 µM); in data set [10], 16 µg/mL (≈ 46.1 µM); in data set [11], 2 µg/mL (≈ 5.76 µM); in [12], below 0.5 µg/mL; in data set [13], 1 µg/mL (≈ 2.88 µM); in data set [14] it was 1 µg/mL (≈ 2.88 µM). For the same compound, in data set [15], the MIC was below 0.5 µg/mL.

As to `C/C(S)=N/C[C@H]1CN(c2ccc3c(c2)CC[C@@H](C)N3C=O)C(=O)O1`, the MIC in data set [9] was below 0.5 µg/mL; in [10], 4 µg/mL (≈ 11.5 µM); in data set [11], 1 µg/mL (≈ 2.88 µM); in data set [12] it was below 0.5 µg/mL; in [13] it was below 0.5 µg/mL; in [14] it was below 0.5 µg/mL. The MIC in data set [15] is below 0.5 µg/mL.

In [25], `CC(=O)NC[C@H]1CN(c2ccc(N3CCOCC3)c(F)c2)C(=O)O1` [LINEZOLID] showed a clearance of 10.5 mL/min/kg. Further, the peak concentration (Cmax) in [26] is 15800 ng/mL. The Tmax in data set [27] was 18 min. Further, the MIC is 16 µg/mL (≈ 47.4 µM) in data set [10], 8 µg/mL (≈ 23.7 µM) in [11], below 1 µg/mL in data set [12] and below 0.5 µg/mL in data set [15]. The compound also came in with an ED50 in [28] of 5.6 mg/kg.
